According to PMC11434354, “Metabolic and Pharmacokinetic Profiling Studies of N, N-Dimethylaniline-Heliamine in Rats by UHPLC-Q-Orbitrap MS/MS” (Molecules, 2024):

Assay: Metabolite identification of DH in rat plasma, urine, feces and rat liver microsomes by UHPLC-Q-Orbitrap MS/MS
Format: in vivo
Parameters: key: F*: feces; U*: urine; P*: plasma; LM*: Liver microsome
Details: rat plasma
Procedure: For the analysis of DH metabolites, the same UHPLC-MS/MS system was used for the plasma analysis, and the ACQUIT UHPLC BEH C18 column was also utilized. Mobile phase A consisted of 0.1% formic acid in water (v/v), while mobile phase B comprised acetonitrile. The flow rate was maintained at 0.2 mL/min, with a 10 µL injection volume. The column temperature was kept constant at 35 °C, and the RS autosampler temperature was maintained at 10 °C. The gradient elution was as follows: 0–3 min(5%B), 3–11 min (7%B), 11–18 min (7%B), and 18–45 min (30%B). A full MS/dd MS^2 mode in positive heated electrospray ionization (HESI) with 140,000 (for MS) and 17,500 (for MS/MS) resolutions was used for the Q–Exactive Plus Orbitrap MS. The compounds identified in full MS/dd MS^2 mode will be scanned using PRM scanning. The following MS parameters were employed: AGC target, 1 × 10^6; Maximum IT, 100 ms; Spray voltage, 3.2 kV; Capillary temp, 320 °C; S-lens RF level, 55; HCD Energy 20, 40, and 60.
Rat liver microsomes were used for in vitro experiments to study DH metabolism in rats more quickly and easily. After that, the cofactors of phases I and II were added to create the phase I and phase II metabolic systems. The composition of the reagent kit and the procedure can be found in our previous work.
For the plasma study, 100 µL of plasma was obtained from rats at 0.5, 1, 2, and 4 h after medicine administration. Then, 300 µL of acetonitrile was added to the above plasma, vortexed for 1 min, and centrifuged for 7 min. The supernatant was collected, and the remaining liquid was dried using nitrogen gas at 40 °C. The blow-dried samples were re-dissolved in 100 µL methanol, sonicated for 1 min, and centrifuged for 7 min.
Urine was collected during the period spanning from 0 to 48 h following administration, with each period’s combined urine comprising 10 mL and 30 mL of acetonitrile added thereto. After a 10 min interval of sonication, the urine samples were transferred into 1.5 mL centrifuge tubes, vortexed for 1 min, and then centrifuged at a speed of 14,000 rpm for 10 min. Successively, the supernatant was merged and subjected to drying by nitrogen gas at 40 °C. The blow-dried samples were re-dissolved in 100 µL of methanol, sonicated for 1 min, and centrifuged for 7 min.
For the fecal study, feces were collected within 0–48 h following administration, dried to powder at room temperature in a shaded area, and combined to yield 8 mL per period, to which 40 mL of acetonitrile was added. Following 30 min of sonication, the samples were transferred to 1.5 mL centrifuge tubes and centrifuged at 14,000 rpm for 10 min. The supernatant was collected and dried with nitrogen at 40 °C before analysis via UHPLC-MS/MS. Before analysis, the blow-dried samples were re-dissolved in 100 µL of methanol, sonicated for 1 min, and centrifuged for 7 min.
Compound Discovery 3.3 was used for data processing. The MS spectrometric features mainly include retention time, exact mass, peak intensity, and fragment ions. The data processing mainly included selecting spectra, aligning retention times, creating pattern traces, creating fish traces, generating expected compounds, finding expected compounds, grouping expected compounds, fish scoring, and marking background compounds. The mass tolerance is less than 5 ppm.

| SMILES | Rat and LM* (matrices in which DH or the metabolite was detected) |
| --- | --- |
| CN(C)c1ccc(C2NCCc3cc(O)c(O)cc32)cc1 (stereo not shown) [M2–A] | U*, LM* |
| COc1cc2c(cc1OC)C(c1ccc(N)cc1)NCC2 (stereo not shown) [M2–B] | P*, U*, LM* |
| CNc1ccc(C2NCCc3cc(OC)c(OC)cc32)cc1 (stereo not shown) [M4–C] | P*, U*, LM* |
| CN(C)c1ccc(-c2nccc3cc(O)c(O)cc23)cc1 [M6–A] | F* |
